Assays:
[1] = test system: uterus of infantile mice; assay: Uterotrophic test (in-vivo test on infantile mice); conditions: uterus dry weight (mg)/body weight (g) × 100
Description: (§1) The effectiveness of these compounds was found in an in-vivo test on infantile mice. This test is extensively described in Cancer Treatment Reviews 1984, 11, 147, and J. Med. Chem., 1984, 27, 1439.
(§2) ^a dosage/animal, administered s.c. on three consecutive days in oliv
(§3) ^b uterus dry weight (mg)/body weight (g) × 100, determined 24
(§4) hours after the final injection.

[2] = target: T1, oestrogen receptor (Bos taurus, UniProt P49884); assay: Relative bonding affinity to the oestrogen receptor (competition with 3H-17β-Estradiol); assay type: binding, calf; conditions: for RBA* (relative bonding affinity to the oestrogen receptor): calves' uteri, in relation to 17β-estradiol = 100
T1 construct: oestrogen receptor of a calf's uterus; from tissue; host or cells: calf uterus
T1 sequence (P49884 1-596): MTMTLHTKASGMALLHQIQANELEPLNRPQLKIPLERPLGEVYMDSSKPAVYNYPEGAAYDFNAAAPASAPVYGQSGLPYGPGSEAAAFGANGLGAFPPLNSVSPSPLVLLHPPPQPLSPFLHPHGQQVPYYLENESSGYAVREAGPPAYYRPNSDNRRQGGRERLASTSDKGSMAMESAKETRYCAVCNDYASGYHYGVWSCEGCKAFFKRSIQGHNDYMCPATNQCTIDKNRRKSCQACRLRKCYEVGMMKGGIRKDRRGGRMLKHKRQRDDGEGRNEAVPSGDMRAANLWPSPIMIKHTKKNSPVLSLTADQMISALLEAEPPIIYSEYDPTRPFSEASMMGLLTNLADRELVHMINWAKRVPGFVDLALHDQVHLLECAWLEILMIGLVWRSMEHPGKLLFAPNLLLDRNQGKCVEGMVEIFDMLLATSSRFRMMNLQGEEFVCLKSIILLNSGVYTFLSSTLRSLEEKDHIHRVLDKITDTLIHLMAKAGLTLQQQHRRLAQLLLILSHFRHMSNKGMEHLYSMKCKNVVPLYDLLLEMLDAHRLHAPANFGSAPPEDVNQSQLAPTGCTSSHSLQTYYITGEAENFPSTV
From the text: The test methodology is described in Cancer Treatment Reviews 1984, 11, 147.
*Relative bonding affinities to the oestrogen receptor of calves' uteri,
in relation to 17β-estradiol = 100

[3] = test system: human MCF-7 mamma carcinoma cells; assay: Effect on cell growth of MCF-7 cells; assay type: cell-based; conditions: for activity at 10 µM / activity at 1 µM / activity at 0.1 µM / activity at 5 µM: Homo sapiens, MCF7, mean of 16 individual results, read-out: T/C (corrected); for activity at 10 µM: 1 × 10^-5 M; for activity at 1 µM: 1 × 10^-6 M; for activity at 0.1 µM: 1 × 10^-7 M; for activity at 5 µM: 5 × 10^-6 M
Description: Data given as corrected T/C values (%).
^a Inhibiting effect on MCF7 cells: quotient of optical densities fro
standard deviation through error reckoning according to GAUSS.
^b Substance concentration (mol/1) in incubation medium.
^c Significant p < 0.01 in relation to control group (C).

[4] = test system: uterus of infantile mice; assay: Anti-uterotrophic test (in-vivo test on infantile mice); conditions: simultaneous 0.4 μg oestron/animal/day; for anti-uterotrophic test, effect: uterus dry weight (mg)/body weight (g) × 100
Description: as §1, §2, §3, §4
^c simultaneous administration of 0.4 μg oestron/animal/day.

[5] = 1 μg/animal s.c. on three consecutive days
[6] = 5 μg/animal s.c. on three consecutive days
[7] = 25 μg/animal s.c. on three consecutive days
[8] = 125 μg/animal s.c. on three consecutive days

SMILES | uterotrophic test, effect [1, 5] [mg/g × 100] | uterotrophic test, effect [1, 6] [mg/g × 100] | uterotrophic test, effect [1, 7] [mg/g × 100] | uterotrophic test, effect [1, 8] [mg/g × 100] | affinity to the oestrogen (estradiol) receptor, in words [2] | RBA* (relative bonding affinity to the oestrogen receptor) [2] | effect on the growth of MCF-7 / hormone-dependent tumour cells, in words [3] | activity at 10 µM [3] [%] | activity at 1 µM [3] [%] | activity at 0.1 µM [3] [%] | activity at 5 µM [3] [%] | anti-uterotrophic test, inhibition ([4]; 5 μg/animal s.c.) [%] | anti-uterotrophic test, effect ([4]; 5 μg/animal s.c.) [mg/g × 100] | anti-uterotrophic test, effect ([4]; 25 μg/animal s.c.) [mg/g × 100] | anti-uterotrophic test, effect ([4]; 125 μg/animal s.c.) [mg/g × 100] | anti-uterotrophic test, inhibition ([4]; 25 μg/animal s.c.) [%] | anti-uterotrophic test, inhibition ([4]; 125 μg/animal s.c.) [%]
CCCc1c(-c2ccc(O)cc2)sc2ccc(O)cc12 [Compound 106a, 5-hydroxy-2-(4-hydroxyphenyl)-3-propylbenzo[b]thiophen] | 25.4 ± 6.2 | 32.7 ± 5.0 | 35.3 ± 7.5 | 51.2 ± 9.9 | greatest affinity in relation to estradiol | 21,9 | strongly inhibiting effect | 0.3 ± 3.5 | 35 ± 10.4 | 77.1 ± 21.4 | 2.3 ± 4.1 | 27 | 34.4 ± 7.1 | 48.0 ± 4.2 | 48.8 ± 4.1 | – | –
CCCc1c(-c2ccc(O)cc2)sc2cc(O)ccc12 [Compound 106b, 6-hydroxy-2-(4-hydroxyphenyl)-3-propylbenzo[b]thiophen] | 16.6 ± 4.6 | 22.4 ± 3.1 | 24.5 ± 4.8 | 35.1 ± 4.9 | greatest affinity in relation to estradiol | 25,1 | strongly inhibiting effect | 1.8 ± 3.1 | 69 ± 15.1 | 81.7 ± 17.5 | 3.6 ± 3 | 34 | 37.0 ± 6.5 | 35.3 ± 6.7 | 34.8 ± 6.2 | 39 | 40
Oc1ccc(-c2sc3cc(O)ccc3c2CCCCCCN2CCCCC2)cc1 [Compound 119b, 6-hydroxy-2-(4-hydroxyphenyl)-3-(6-N-piperidinylhexyl)benzo[b]thiophen] | 19.8 ± 3.1 | 20.7 ± 5.0 | 19.4 ± 2.1 | 34.2 ± 9.5 | – | 7,1 | strongly inhibiting effect | -13.5 ± 3.2 | 48.1 ± 12.4 | 18.8 ± 7.2 | 2 ± 3.6 | 73 | 26.1 ± 5.4 | 22.8 ± 2.6 | 30.0 ± 5.6 | 65 | 61
